According to patent US20100105098A1, “Methods of Identifying Disease Biomarkers in the Lense of the Eye” (priority 2006, published 2010):
Blank lines part the entries; values can stand above or below the compound they belong to.

Legend:
cultured lens = settings: bolus of 250 μM H2O2, incubated for 24 hrs
Procedure: FIG. 26: Cultured lens exposed to a bolus of 250 μM H2O2 incubated for 24 hrs.
Optimizing sensitivity for Raman. […] In previous in vitro studies Laser probes at 514 nm (82), and 647 nm (34) wavelengths were used for detection and characterization of Aβ-metal complex signature intensities in situ in lenses.

[1] = in vitro, cited from earlier work

light scattering indicative of lens opacification (cultured lens): increases over time
Compound: OO [H2O2, hydrogen peroxide]

Compound: rat Aβ1-40: rat β-amyloid peptide 1-40, lacking two key metal chelating amino acids (DAEFGHDSGFEVRHQKLVFFAEDVGSNKGAIIGLMVGGVV; Amyloid-beta protein 40; UniProt P08592 672-711, looked up, fragment)
H2O2 produced relative to human Aβ1-40 ([1]; rat peptides): ~20%

Compound: Aβ1-40: human β-amyloid peptide, 1-40 amino acid form derived from APP
H2O2 produced relative to Aβ1-42 peptides ([1]; human peptides): ~50%
